Reference: US12157882B2, “Lactobacillus plantarum strain ATG-K2, ATG-K6 or ATG-K8, and composition for preventing or treating vaginitis comprising same” (ATOGEN CO., LTD, priority 2018, dated 2024)

Tests used:
[1] = Bile salt hydrolase (BSH) activity on MRS agar with 0.5% sodium taurocholic acid; settings: MRS agar with 0.5% (w/v) TDCA, anaerobic, 37° C., about 72 hr
Procedure: In order to confirm the presence or absence of bile salt hydrolase (BSH) activity as the function of each of the lactic-acid bacteria, an experiment was performed in accordance with the method described in Dashkevicz and Feighner (1989). Briefly, an agar medium was prepared by adding 0.5% (w/v) sodium taurocholic acid (TDCA, Sigma-Aldrich, Germany) to MRS.

[2] = Ability to produce hydrogen peroxide (tetramethylbenzidine MRS agar); settings: anaerobic, 37° C., about 48-72 hr, color change after exposure to air
Procedure: For the ability to produce hydrogen peroxide as the function of each of the lactic-acid bacteria, an agar medium was prepared by adding 0.25 mg/ml of tetramethylbenzidine (Sigma-Aldrich, Germany) and […] to MRS (McGroarty et al., 1992). Here, the additives were added at about 50° C. after autoclaving of the MRS agar. Each of the lactic-acid bacteria was inoculated into the completely hardened test agar medium, placed in an anaerobic jar, and cultured at 37° C. for about 48-72 hr. After culture, the lactic-acid bacteria were taken out of the anaerobic jar and exposed to air, and the colony and the surrounding color change were observed.

[3] = tested on: Gardnerella vaginalis KCTC5096 (GV); test: Coaggregation of lactic-acid bacteria on vaginitis pathogen; type: cell-based; settings: time given only for CA (8 hr)
Procedure: (§1) Briefly, lactic-acid bacteria and vaginitis pathogens were centrifuged at 13,000 rpm for 5 min and the supernatant was decanted, after which the precipitated microorganism cells were washed using 1×PBS. After washing was repeated twice, the microorganisms were each suspended using 1×PBS until an absorbance OD600 of 1.0 was obtained. The lactic-acid bacteria suspension and the vaginitis pathogens were mixed at the same volume ratio, homogenized through vortexing, and allowed to stand, after which the supernatant of the mixed solution was carefully obtained at 1, 4, and 8 hr, and the absorbance thereof was measured. The suspension without mixing the microorganisms was used as a control. Based on the measured absorbance, coaggregation was calculated using the following equation. Here, ODpatho represents the absorbance of the vaginitis pathogen, ODLAB represents the absorbance of the lactic-acid bacteria, and ODmix represents the absorbance of the mixed solution of microorganisms. Coaggregation (%)={(ODpatho+ODLAB)/2−ODmix}/(ODpatho+ODLAB)/2

[4] = tested on: Candida albicans KCTC7678 (CA); test: as above; type: cell-based; settings: at 8 hr
Procedure: as §1

[5] = tested on: TNF-α in mouse macrophage cell line RAW264.7; test: TNF-α ELISA, RAW264.7 cells treated with lactic-acid bacteria lysate; type: cell-based; settings: lysate 100 μg/ml and 500 μg/ml, 24 hr
Procedure: (§2) In order to measure the immunological effects of K2, K6 and K8 lactic-acid bacteria, a cytokine quantification experiment using cells was performed. The cells that were used were a mouse macrophage cell line RAW264.7, and the medium used for each cell experiment was a Gibco® Dulbecco's Modified Eagle Medium (DMEM, Gibco, USA) supplemented with 10% fetal bovine serum (Gibco, USA) and 1% penicillin/streptomycin cocktail (Sigma-Aldrich, Germany). RAW264.7 cells cultured at about 80-90% confluency before material treatment were recovered and seeded in an amount of 1×10^6 cells per well of a 24-well plate. After seeding, culture was carried out in an environment of 37° C. and 5% CO2 for 24 hr in order to realize attachment to the 24-well plate and stabilization thereof. Each well was treated with the lactic-acid bacteria lysate at concentrations of 100 μg/ml and 500 μg/ml, and 1 μg/ml of lipopolysaccharide (LPS, Sigma-Aldrich, Germany) was used as a positive control, and an experimental group not treated with any material was used as a negative control. The cells were cultured at 37° C. and 5% CO2 for 24 hr after material treatment, and the cell culture solution was recovered, followed by enzyme-linked immunosorbent assay (ELISA) for IL-6 and TNF-α. Measurement was performed for IL-6 using a Mouse IL-6 Quantikine ELISA Kit (R&D systems, USA) and for TNF-α using a Mouse TNF-alpha Quantikine ELISA Kit (R&D systems, USA).

[6] = tested on: IL-6 in mouse macrophage cell line RAW264.7; test: IL-6 ELISA, RAW264.7 cells treated with lactic-acid bacteria lysate; type: cell-based; settings: lysate 100 μg/ml and 500 μg/ml, 24 hr
Procedure: as §2

[7] = tested on: Gardnerella vaginalis KCTC5096 (GV); test: Disinfection power through coculture; type: cell-based; settings: coculture 1:1, at 24 hr
Procedure: (§3) The anti-vaginitis effect of the lactic-acid bacteria of the present disclosure was tested for disinfection power on the vaginitis pathogen through coculture. In the anti-CA experiment, CA at a concentration of about 2.5×10^6 CFU/ml and each of lactic-acid bacteria at a concentration of about 2.5×10^6 CFU/ml were mixed at a ratio of 1:1, and coculture thereof was carried out in a culture medium of YM and MRS mixed at 1:1. In the anti-GV experiment, GV at a concentration of about 1.0×10^8 CFU/ml and each of lactic-acid bacteria at a concentration of about 1.0×10^8 CFU/ml were mixed at a ratio of 1:1 and then inoculated into a 10% horse-serum BHI broth. Each coculture experiment was conducted for 48 hr, and portions of the samples were collected initially and every 24 hr, and a viable cell count was taken through a serial dilution method and a plate-spreading method. In the anti-CA experiment, in order to measure CA alone, a YM plate medium containing ampicillin at a concentration of 100 μg/ml was used. In the anti-GV experiment, CFU was measured by distinguishing the colony forms between GV and lactic-acid bacteria using a 5% rabbit blood BHI plate medium.

[8] = tested on: Candida albicans KCTC7678 (CA); test: Disinfection power through coculture; type: cell-based; settings: for disinfection power on CA: coculture 1:1, at 24 hr; for CA in coculture: coculture 1:1, at 48 hr
Procedure: as §3

[9] = tested on: Candida albicans KCTC7678 (CA); test: Growth inhibition by cell-free culture supernatant (CFCS); type: cell-based; settings: CFCS at 1× concentration, culture for 24 hr, OD600
Procedure: In order to measure the activity of the lactic-acid bacteria culture solution on inhibiting the growth of vaginitis pathogens, a 10-fold-concentrated cell-free culture supernatant (CFCS) was prepared. The culture solution of each of K2, K6 and K8 lactic-acid bacteria was centrifuged at 4,000 rpm for 25 min, thereby separating the cells of the lactic-acid bacteria and the culture supernatant from each other. The culture supernatant was filtered using a 0.2 μm pore syringe filter (Sartorius, Germany). The filtered culture supernatant was lyophilized and suspended in 1×PBS to afford a solution concentrated 10-fold compared to the volume of the initial culture solution. CA was inoculated at a concentration of 1×10^5 CFU/ml and GV was inoculated at a concentration of 1×10^6 CFU/ml under individual culture conditions. The CFCS of lactic-acid bacteria was added in a volume corresponding to 0.1 times the final volume to the vaginitis-pathogen-inoculated solution so as to reach 1×, and the test group not added with CFCS was used as a control. The mixed composition was cultured for 24 hr for CA and 48 hr for GV under individual vaginitis-pathogen culture conditions, and the absorbance was measured at a wavelength of OD600. Based on the measured absorbance, growth inhibition was determined using the following cytotoxicity calculation equation. In this equation, ODcontrol represents the absorbance of the control, and ODcfcs represents the absorbance of the CFCS-added group. Growth inhibition (%)=(ODcontrol−ODcfcs)/ODcontrol×100

Row | Substance | bile salt hydrolase (BSH) activity [1] | ability to produce hydrogen peroxide [2] | coaggregation with GV [3] [%] | coaggregation with CA [4] [%] | TNF-α production compared to the control [5] | IL-6 production compared to the control [6] | disinfection power on GV [7] [%] | disinfection power on CA [8] [%] | CA in coculture [8] | growth inhibition of CA [9] [%]
1 | Lactobacillus plantarum ATG-K6 [Lb. plantarum ATG-K6] | exhibited BSH activity | produced hydrogen peroxide | 30.39 | 58.57 | induced | induced | 92.50 | 99.49 | completely disappeared | 82.11
2 | Lactobacillus plantarum ATG-K2 [Lb. plantarum ATG-K2] | exhibited BSH activity | produced hydrogen peroxide | 32.72 | 70.73 | induced | induced | 87.37 | 99.03 | completely disappeared | 87.05
3 | Lactobacillus plantarum ATG-K8 [Lb. plantarum ATG-K8] | exhibited BSH activity | produced hydrogen peroxide | 20.45 | 57.88 | induced | induced | 93.71 | 99.53 | completely disappeared | 81.34
